Holding throughout (format): biochemical
Experiment [1] addresses T1, HDAC7 (Homo sapiens, UniProt Q8WUI4).
T1 sequence (Q8WUI4 1-952): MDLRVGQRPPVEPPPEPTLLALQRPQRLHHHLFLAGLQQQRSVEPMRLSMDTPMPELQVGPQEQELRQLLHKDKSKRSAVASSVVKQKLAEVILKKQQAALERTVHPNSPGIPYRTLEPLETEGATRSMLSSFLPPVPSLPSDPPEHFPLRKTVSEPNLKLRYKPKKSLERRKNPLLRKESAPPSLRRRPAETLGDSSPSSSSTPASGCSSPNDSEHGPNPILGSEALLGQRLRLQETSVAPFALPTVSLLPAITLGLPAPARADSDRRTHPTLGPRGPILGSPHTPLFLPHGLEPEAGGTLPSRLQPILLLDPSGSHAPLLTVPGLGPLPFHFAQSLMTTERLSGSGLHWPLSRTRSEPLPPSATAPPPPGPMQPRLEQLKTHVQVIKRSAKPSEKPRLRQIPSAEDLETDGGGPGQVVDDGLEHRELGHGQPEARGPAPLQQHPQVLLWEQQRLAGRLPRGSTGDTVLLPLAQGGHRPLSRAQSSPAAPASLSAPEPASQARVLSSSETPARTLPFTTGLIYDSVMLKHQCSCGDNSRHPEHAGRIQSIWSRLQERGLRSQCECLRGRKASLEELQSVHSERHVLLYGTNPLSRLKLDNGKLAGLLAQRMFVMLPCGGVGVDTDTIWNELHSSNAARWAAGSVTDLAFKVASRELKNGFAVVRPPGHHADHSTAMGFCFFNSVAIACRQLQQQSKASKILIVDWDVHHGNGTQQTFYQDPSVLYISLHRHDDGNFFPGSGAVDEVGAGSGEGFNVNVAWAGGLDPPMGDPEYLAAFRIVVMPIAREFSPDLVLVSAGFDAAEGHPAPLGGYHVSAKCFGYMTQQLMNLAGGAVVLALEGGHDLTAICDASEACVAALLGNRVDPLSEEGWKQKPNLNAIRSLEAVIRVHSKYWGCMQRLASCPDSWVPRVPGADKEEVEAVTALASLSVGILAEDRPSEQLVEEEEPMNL
Description: HDAC enzyme activity test, HDAC7. The method, then:
(§1) Then, 0.3 μg of enzyme and 10 μM of substrate per well were added, reacted at 30° C. for 60 minutes. Thereto, Fluor de Lys® Developer II (BML-KI176) was added and reacted for 30 minutes. […] From the data, the respective IC50 were calculated by GraphPad Prism 4.0 program.

Experiment [2] addresses HDAC9 (Homo sapiens, UniProt Q9UKV0). Description: HDAC enzyme activity test, HDAC9. The conditions noted are these: Table 11, eleven HDAC isozymes; read-out: Inhibition ability (IC50) against HDAC9. The method, then: as §1
The target of experiment [3] is T2, HDAC11 (Homo sapiens, UniProt Q96DB2).
T2 sequence (Q96DB2 1-347): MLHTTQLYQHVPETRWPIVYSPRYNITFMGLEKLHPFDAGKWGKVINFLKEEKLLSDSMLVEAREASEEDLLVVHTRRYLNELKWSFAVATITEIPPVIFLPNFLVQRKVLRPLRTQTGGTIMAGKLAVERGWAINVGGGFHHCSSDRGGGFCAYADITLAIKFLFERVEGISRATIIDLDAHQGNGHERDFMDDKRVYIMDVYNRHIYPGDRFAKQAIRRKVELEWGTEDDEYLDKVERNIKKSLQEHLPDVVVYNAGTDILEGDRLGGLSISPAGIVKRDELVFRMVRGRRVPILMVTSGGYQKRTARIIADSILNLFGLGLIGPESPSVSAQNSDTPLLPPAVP
In words: HDAC enzyme activity test, HDAC11. The conditions noted are these: Table 11, eleven HDAC isozymes; read-out: Inhibition ability (IC50) against HDAC11. The method, then:
as §1

Experiment [4] deals with T3, HDAC10 (Homo sapiens, UniProt Q969S8).
T3 sequence (Q969S8 1-669): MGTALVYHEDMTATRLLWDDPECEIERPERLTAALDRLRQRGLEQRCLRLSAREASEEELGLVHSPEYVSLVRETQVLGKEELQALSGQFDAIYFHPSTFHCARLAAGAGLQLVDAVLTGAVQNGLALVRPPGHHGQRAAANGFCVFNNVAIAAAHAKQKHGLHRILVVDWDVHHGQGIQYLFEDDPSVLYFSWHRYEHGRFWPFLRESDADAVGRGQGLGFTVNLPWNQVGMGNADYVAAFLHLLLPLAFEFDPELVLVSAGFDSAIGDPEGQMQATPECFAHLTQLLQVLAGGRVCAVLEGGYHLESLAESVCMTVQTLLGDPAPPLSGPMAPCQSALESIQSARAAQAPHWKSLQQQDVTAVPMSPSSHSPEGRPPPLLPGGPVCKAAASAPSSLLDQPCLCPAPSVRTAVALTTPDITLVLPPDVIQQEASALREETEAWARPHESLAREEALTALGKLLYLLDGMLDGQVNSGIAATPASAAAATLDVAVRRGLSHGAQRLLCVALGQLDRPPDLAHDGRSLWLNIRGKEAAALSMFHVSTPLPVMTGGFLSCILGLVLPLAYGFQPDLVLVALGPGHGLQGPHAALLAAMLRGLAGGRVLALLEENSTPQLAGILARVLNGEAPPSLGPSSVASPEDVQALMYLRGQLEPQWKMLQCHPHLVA
Description: HDAC enzyme activity test, HDAC10. The conditions noted are these: Table 11, eleven HDAC isozymes; read-out: Inhibition ability (IC50) against HDAC10. The method, then:
as §1

The structures appear in SMILES notation. pIC50: −log10 of the molar value. Where two headings read alike, the source gives them in different places.

Among the data in patent US20140315889A1, “HYDROXAMATE DERIVATIVES FOR HDAC INHIBITOR, AND THE PHARMACEUTICAL COMPOSITION COMPRISING THEREOF” (CHONG KUN DANG PHARMACEUTICAL CORP., priority 2011, published 2014) are IC50 values, retold here.

Chain of HDAC9 (Q9UKV0 whole entry, species assumed): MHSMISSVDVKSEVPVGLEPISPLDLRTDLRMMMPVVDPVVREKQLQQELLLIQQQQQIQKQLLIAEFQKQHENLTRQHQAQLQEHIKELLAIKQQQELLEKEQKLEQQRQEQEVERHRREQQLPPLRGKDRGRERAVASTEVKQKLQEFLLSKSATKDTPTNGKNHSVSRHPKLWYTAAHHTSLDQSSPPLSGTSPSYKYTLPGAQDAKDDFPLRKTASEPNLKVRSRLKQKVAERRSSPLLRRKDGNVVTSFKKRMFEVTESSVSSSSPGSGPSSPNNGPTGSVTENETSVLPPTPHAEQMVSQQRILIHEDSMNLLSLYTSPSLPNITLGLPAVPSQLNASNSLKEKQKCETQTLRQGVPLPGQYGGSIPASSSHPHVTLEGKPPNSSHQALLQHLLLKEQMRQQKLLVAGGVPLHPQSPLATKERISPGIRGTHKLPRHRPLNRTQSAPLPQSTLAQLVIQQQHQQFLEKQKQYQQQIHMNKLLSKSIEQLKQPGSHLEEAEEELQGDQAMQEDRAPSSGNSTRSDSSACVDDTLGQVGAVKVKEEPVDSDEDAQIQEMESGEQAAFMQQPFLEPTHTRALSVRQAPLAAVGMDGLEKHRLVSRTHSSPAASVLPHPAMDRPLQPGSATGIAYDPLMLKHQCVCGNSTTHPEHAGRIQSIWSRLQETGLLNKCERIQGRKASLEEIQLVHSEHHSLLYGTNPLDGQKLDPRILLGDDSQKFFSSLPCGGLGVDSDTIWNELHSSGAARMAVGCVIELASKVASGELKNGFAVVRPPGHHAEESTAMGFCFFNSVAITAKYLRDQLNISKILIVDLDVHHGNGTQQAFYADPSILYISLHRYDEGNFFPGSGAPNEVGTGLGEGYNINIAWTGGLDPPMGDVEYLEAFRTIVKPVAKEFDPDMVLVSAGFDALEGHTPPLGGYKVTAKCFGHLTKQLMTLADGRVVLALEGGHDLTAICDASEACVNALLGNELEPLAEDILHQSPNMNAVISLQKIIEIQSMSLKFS

A word on the pIC50: it is the negative decadic logarithm of the IC50, by convention in mol/L. For the compound `CN1CCN(C(=O)N(CCCCCCC(=O)NO)c2ccc(-c3ccc4cnn(C)c4c3)cc2)CC1` [CKD-581, reference compound], the negative-log IC50 (pIC50) in experiment [1] (Table 11, eleven HDAC isozymes, read-out: Inhibition ability (IC50) against HDAC7) is 7.97; in experiment [2], 9.38; in experiment [3], 8.82; in experiment [4], 8.57.

For `O=C(NO)c1ccc(Cn2c3c(c4ccccc42)C(=O)C(CN2CCOCC2)CC3)cc1` (stereo not shown) [Compound 87, N-hydroxy-4-((3-(morpholinomethyl)-4-oxo-1,2,3,4-tetrahydrocarbazol-9-yl)methyl)benzamide], the pIC50 in experiment [1] is 5.48; in experiment [2], 5.76; in experiment [3], 4.43; in experiment [4], 4.81.

On to `CN1CCN(CC2CCc3c(c4cc(F)ccc4n3Cc3ccc(C(=O)NO)cc3)C2=O)CC1` (stereo not shown) [Compound 142, 4-((6-fluoro-3-((4-methylpiperazin-1-yl)methyl)-4-oxo-1,2,3,4-tetrahydrocarbazol-9-yl)methyl)-N-hydroxybenzamide], for which the negative-log IC50 (pIC50) in experiment [1] was 5.34; in experiment [2], 5.73; in experiment [3], 4.95; in experiment [4], 4.43.

For `CC1(C)CC(=O)c2c(C(F)(F)F)nn(Cc3ccc(C(=O)NO)cc3)c2C1` [Compound 237, 4-((6,6-dimethyl-4-oxo-3-(trifluoromethyl)-4,5,6,7-tetrahydro-1H-indazol-1-yl)methyl)-N-hydroxybenzamide], the pIC50 was 4.77 in experiment [2], 4.47 in experiment [3] and 4.12 in experiment [4].

For `O=C(NO)c1ccc(Cn2c3c(c4ccccc42)C(=O)N(CCN2CCOCC2)CC3)cc1` [Compound 249, N-hydroxy-4-((2-(2-morpholinoethyl)-1-oxo-1,2,3,4-tetrahydropyrido[4,3-b]indol-5-yl)methyl)benzamide], the negative-log IC50 (pIC50) in experiment [1] is 5.47; in experiment [2], 5.99; in experiment [3], 5.26; in experiment [4], 4.28.
